Patent US20240376099A1, “COMPOUNDS AND COMPOSITIONS AS INHIBITORS OF ENDOSOMAL TOLL-LIKE RECEPTORS” (Novartis AG, priority 2016, published 2024)

Columns and labels:
Format in all cases: cell-based
[1] = target: T1, TLR7 (Homo sapiens, UniProt Q9NYK1); test: huPBMC TLR7 Antagonist IFNα Assay; details: human PBMCs stimulated with ssRNA40 10 μg/mL (DOTAP), 14-16 hrs; IFNα2b AlphaLISA read-out
T1 construct: Fresh blood was collected from normal human donors; endogenous in cells; host or cells: human PBMCs from fresh donor blood
T1 sequence (Q9NYK1 27-1049): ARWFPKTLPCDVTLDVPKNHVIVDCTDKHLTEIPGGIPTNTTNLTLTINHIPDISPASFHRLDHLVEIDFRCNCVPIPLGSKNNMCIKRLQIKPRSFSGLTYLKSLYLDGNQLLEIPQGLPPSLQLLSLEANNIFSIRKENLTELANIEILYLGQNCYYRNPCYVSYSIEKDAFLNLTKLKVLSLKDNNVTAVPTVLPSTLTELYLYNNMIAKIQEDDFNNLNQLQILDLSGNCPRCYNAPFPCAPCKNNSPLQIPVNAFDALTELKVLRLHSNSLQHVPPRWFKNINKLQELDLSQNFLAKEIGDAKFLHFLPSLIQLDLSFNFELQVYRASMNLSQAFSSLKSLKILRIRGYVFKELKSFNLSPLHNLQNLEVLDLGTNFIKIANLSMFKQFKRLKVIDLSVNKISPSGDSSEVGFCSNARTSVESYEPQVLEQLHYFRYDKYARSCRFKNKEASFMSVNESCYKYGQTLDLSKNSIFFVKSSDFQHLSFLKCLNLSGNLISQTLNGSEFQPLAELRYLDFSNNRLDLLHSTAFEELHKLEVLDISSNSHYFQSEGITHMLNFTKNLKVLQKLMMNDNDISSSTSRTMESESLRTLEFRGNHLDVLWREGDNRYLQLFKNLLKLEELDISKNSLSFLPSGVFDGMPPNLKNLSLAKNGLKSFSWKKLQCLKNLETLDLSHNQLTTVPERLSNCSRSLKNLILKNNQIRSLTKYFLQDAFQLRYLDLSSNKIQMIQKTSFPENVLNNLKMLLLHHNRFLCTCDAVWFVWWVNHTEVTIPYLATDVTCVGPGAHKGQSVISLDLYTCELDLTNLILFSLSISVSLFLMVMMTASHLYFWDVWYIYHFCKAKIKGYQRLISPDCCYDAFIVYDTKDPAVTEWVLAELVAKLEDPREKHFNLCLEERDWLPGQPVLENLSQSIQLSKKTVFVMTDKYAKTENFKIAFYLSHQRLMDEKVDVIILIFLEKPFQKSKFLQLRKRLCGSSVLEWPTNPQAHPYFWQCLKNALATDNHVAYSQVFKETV
Description: (§1) Compounds were generally serially diluted (1/3) in DMSO and plated on sterile 384 well tissue culture plates and stored until ready for use. Each ten-point dilution was typically plated in triplicate in parallel rows.
(§2) Fresh blood was collected from normal human donors underwritten informed consent in heparinized syringes on the morning of the assay. The blood was diluted in RPMI-1640 medium and the white blood cells were separated from red blood cells by centrifugation (800 g 15′ 0 acceleration, 0 brake) on a Ficoll cushion. Peripheral blood mononuclear cells (PBMCs) were separated from platelets by a series of low-speed centrifugations (1000RPM 10′) in PBS+5% HI—FBS and 1 mM EDTA. Purified PBMCs were re-suspended in assay medium (RPMI-1640 w Glutamax (Invitrogen) supplemented with 5% HI—FBS, 10 mM HEPES, 50 uM β-mercaptoethanol, and 100 mG/L penicillin/streptomycin cocktail). Viable PBMCs were counted on a hemacytometer and kept on ice until ready for plating.
(§3) A 4× concentration (4 ug/ml or 40 ug/ml for TLR8 or TLR7 assays, respectively) of the TLR7/8 agonist ssRNA40 (IDT) was complexed with 10% DOTAP (Roche) in assay medium for 30 min prior to addition to the PBMC suspension (5 million cells/ml). After addition, the final concentration of ssRNA40 in the TLR7/8 stimulated PBMC suspension was 1 μg/ml for TLR8 assay, and 10 μg/mL for the TLR7 assay. The final DOTAP concentration was 2.5%. Diluted PBMCs (5 million cells/ml) were treated with 4×TLR9 agonist ODN2216 (Invivogen). Final concentration of ODN2216 in TLR9 stimulated PBMC suspension was 0.3 μM.
(§4) Agonist stimulated PBMCs were plated on the compound treated 384 well plates at 150,000 cells/well. Un-stimulated PBMCs were plated as controls on each plate. Plating volume was 40 μL per well. DMSO concentration in each well was 0.25%.
(§5) A separate plate, without compounds, with titrations of ssRNA40 and ODN2216 was included in every assay to measure agonist response of each donor's PBMC prep. Assay plates were placed in a tissue culture incubator (37° C., 5% CO2) for 14-16 hrs. After this incubation, the plates were centrifuged and stored at −20° C. until they were assayed.
(§6) IL-6 TR-FRET Assay for TLR8 activity: • 1) Cisbio Human IL-6 kit, 20,000 tests (62TNFPEC), and GNF High-Base TC 384 well plates (cat #789163G) were used; • 2) the Anti-TIL-6 Cryptate conjugate and the Anti-IL-6 XL665 conjugate were diluted 1:20 in Reconstitution Buffer; • 3) a 1:1 mixture of 3 μl/well Anti-IL-6 Cryptate conjugate and 3 μl/well Anti-IL-6 XL665 conjugate was prepared; • 4) 6 μl/well HTRF dilution mastermix was added to 6 μl of transferred supernatant samples in proxiplates; • 5) The plates were incubated for 3 hrs at rt in the dark; and • 6) the levels of IL-6 production was measured using an Envision plate reader (665 nm (emmission)/590 nm (excitation)) with HTRF settings and ratiometric read-out: (XL665 emission/Eu Cryptate emission)×10,000. IFNα2b AlphaLISA Assay for TLR7 or TLR9 activity After thawing the assay plates, 6 μL of supernatant samples were transferred to a low-volume AlphaPlate 384SW (Perkin-Elmer). The concentration of IFNα in supernatants was measured using the IFNα2b AlphaLISA Assay (Perkin-Elmer: AL297F). 3 μL of IFNα acceptor beads/biotinylated antibody solution was added first, using laboratory automation. After an hour incubation, […] of streptavidin […] bead solution was added. The plates containing this mixture were incubated in the dark for an hour and read on an appropriate plate reader at reading parameters set by the manufacturer. (Envision, EnSpire: Perkin-Elmer).

[2] = target: T2, TLR9 (Homo sapiens, UniProt Q9NR96); test: huPBMC TLR9 Antagonist IFNα Assay; details: human PBMCs stimulated with ODN2216 0.3 μM, 14-16 hrs; IFNα2b AlphaLISA read-out
T2 construct: Fresh blood was collected from normal human donors; endogenous in cells; host or cells: human PBMCs from fresh donor blood
T2 sequence (Q9NR96 26-1032): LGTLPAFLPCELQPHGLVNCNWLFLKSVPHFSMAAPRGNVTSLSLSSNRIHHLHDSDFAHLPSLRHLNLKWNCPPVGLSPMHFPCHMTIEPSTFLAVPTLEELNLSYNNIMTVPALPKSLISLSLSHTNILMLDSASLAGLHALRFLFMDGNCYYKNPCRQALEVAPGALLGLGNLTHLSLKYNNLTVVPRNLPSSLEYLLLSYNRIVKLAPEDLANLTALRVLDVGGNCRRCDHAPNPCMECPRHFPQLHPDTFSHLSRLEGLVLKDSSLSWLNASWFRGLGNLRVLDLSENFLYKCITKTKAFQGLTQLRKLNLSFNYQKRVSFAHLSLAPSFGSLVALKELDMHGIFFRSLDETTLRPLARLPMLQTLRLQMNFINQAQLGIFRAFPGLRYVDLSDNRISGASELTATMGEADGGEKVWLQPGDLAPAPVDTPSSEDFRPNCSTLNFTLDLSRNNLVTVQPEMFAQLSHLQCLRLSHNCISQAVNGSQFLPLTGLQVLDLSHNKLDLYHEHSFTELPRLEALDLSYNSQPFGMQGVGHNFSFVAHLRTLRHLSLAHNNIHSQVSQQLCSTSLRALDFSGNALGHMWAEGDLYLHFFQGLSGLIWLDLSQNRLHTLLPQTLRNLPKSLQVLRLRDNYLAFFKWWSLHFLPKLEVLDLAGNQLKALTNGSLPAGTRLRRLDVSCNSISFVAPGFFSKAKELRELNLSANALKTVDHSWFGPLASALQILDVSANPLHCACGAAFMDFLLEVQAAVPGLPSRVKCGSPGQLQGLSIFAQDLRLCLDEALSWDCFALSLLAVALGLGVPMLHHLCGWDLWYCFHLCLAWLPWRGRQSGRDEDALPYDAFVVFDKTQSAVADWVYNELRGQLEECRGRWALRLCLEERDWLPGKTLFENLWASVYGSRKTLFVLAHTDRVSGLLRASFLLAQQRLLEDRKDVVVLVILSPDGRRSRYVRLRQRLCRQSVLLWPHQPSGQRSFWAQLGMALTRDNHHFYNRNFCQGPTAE
Description: as §1, §2, §3, §4, §5, §6

[3] = target: T3, TLR8 (Homo sapiens, UniProt Q9NR97); test: huPBMC TLR8 Antagonist IL-6 TR-FRET Assay; design: Fresh blood was collected from normal human donors; endogenous in cells; host or cells: human PBMCs from fresh donor blood; details: human PBMCs stimulated with ssRNA40 1 μg/ml (DOTAP), 14-16 hrs; IL-6 TR-FRET read-out
T3 sequence (Q9NR97 27-1041): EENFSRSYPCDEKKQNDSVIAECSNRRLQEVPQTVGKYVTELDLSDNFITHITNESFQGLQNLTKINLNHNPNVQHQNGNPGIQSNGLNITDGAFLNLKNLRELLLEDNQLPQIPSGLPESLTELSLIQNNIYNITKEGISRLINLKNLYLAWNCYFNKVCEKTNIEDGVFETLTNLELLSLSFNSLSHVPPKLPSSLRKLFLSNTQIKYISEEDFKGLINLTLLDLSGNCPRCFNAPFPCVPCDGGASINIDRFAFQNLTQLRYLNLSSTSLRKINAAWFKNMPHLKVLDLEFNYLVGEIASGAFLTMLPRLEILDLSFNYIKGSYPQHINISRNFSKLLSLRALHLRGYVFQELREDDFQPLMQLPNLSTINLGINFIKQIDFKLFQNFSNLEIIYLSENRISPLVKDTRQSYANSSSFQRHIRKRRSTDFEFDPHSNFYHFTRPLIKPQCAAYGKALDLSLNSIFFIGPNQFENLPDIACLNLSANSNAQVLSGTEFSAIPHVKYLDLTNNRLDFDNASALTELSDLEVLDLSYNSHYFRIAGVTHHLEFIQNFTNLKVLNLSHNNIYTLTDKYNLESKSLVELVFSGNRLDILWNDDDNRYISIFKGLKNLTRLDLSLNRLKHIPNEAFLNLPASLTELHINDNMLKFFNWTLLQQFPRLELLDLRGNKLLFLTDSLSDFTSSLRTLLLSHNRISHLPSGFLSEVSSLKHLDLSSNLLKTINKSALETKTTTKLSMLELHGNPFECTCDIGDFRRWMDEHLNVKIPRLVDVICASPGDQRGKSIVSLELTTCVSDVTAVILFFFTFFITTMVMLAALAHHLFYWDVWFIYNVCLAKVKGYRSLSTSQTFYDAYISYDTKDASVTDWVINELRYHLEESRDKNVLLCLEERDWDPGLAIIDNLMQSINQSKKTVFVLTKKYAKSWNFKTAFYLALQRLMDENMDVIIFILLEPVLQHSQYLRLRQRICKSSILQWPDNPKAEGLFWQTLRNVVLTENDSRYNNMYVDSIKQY
How it was run: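 Human PBMCs from fresh donor blood (150,000 cells/well) stimulated 14–16 h at 37 °C with DOTAP-complexed ssRNA40 (final 1 μg/ml for TLR8, 10 μg/mL for TLR7) or ODN2216 (final 0.3 μM, TLR9), 0.25% DMSO, ten-point 1/3 compound dilutions. Supernatant IL-6 read by HTRF (TLR8); IFNα by IFNα2b AlphaLISA (TLR7/TLR9).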

IC50 [1] | IC50 [2] | IC50 [3] | Structure (SMILES)
0.004 µM | > 10 µM | – | CC(=O)NC12CCC(Cn3nc(C)c4c3CCN(c3cc(C)nc5c3cnn5C)C4)(CC1)CC2 [compound 47, N-(4-((5-(1,6-dimethyl-1H-pyrazolo[3,4-b]pyridin-4-yl)-3-methyl-4,5,6,7-tetrahydro-1H-pyrazolo[4,3-c]pyridin-1-yl)methyl)bicyclo[2.2.2]octan-1-yl)acetamide]
0.061 µM | – | > 10 µM | CCn1ncc2c(N3CCc4c(c(C)nn4CC45CCC(NC(=O)OC(C)(C)C)(CC4)CC5)C3)cc(C)nc21 [compound 145, tert-butyl (4-((5-(1-ethyl-6-methyl-1H-pyrazolo[3,4-b]pyridin-4-yl)-3-methyl-4,5,6,7-tetrahydro-1H-pyrazolo[4,3-c]pyridin-1-yl)methyl)bicyclo[2.2.2]octan-1-yl)carbamate]
